This note sets out measurements from ChEMBL document CHEMBL1177767, “The discovery and initial optimisation of pyrrole-2-carboxamides as inhibitors of p38alpha MAP kinase” (Bioorg Med Chem Lett, 2010).

Holding throughout (type): ADME, organism-based
Data set [1] in a line: Oral bioavailability in CD rat at 1 mg/kg after 7 hrs by LC-MS/MS analysis. The following applies: in vivo.
Data set [2] can be described thus: Clearance in CD rat at 1 mg/kg, iv and 1 mg/kg, po after 7 hrs by LC-MS/MS analysis. The following applies: in vivo.
A short description of data set [3]: Half life in CD rat at 1 mg/kg, iv and 1 mg/kg, po after 7 hrs by LC-MS/MS analysis. The following applies: in vivo.
The nature of data set [4]: Apparent volume of distribution at steady state in CD rat at 1 mg/kg, iv and 1 mg/kg, po after 7 hrs by LC-MS/MS analysis. The following applies: in vivo, read-out: Vdss.

The bioavailability is the share of a dose that reaches the circulation, judged against a reference dose that is usually intravenous. For orientation: half-life means the time needed for the level to fall by half in the phase considered. A high value points to slow decline. As to `Cc1ccccc1C(=O)c1c[nH]c(C(=O)NCc2ccco2)c1`, the bioavailability in data set [1] stood at 18%. Moreover, the clearance in data set [2] amounted to 56 mL/min/kg. This compound had a half-life in data set [3] of 9.6 min. The Vd in data set [4] came out at 0.931 L/kg.
